The source of these data is PubChem BioAssay (NCI).

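The compound was tested at five concentrations on cells cultured in 96-well plates, with a 48-hour exposure period. TGI denotes the concentration required for complete inhibition of growth.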

Test systems include ACHN renal; COLO 205 colon; HCT-116 colon; HCT-15 colon; HOP-62 NSCLC; HT29 colon; IGROV1 ovarian; LOX IMVI melanoma; MALME-3M melanoma; MCF7 breast; MDA-MB-231 breast; MDA-MB-435; MOLT-4 leukemia; NCI-H23 lung; OVCAR-4 ovarian; PC-3 prostate; SF-295 CNS; SK-OV-3 ovarian; U251 CNS.
Holding throughout (assay): NCI tumour cell line growth inhibition, 48 h

On to `CC(C)(C)OC(=O)NC(Cc1cnc[nH]1)C(=O)N1CCCC1C(N)=O` (stereo not drawn), for which the TGI with ACHN renal, in the experiment on COLO 205 colon, in the experiment on HCT-116 colon, in the experiment with HCT-15 colon, in the experiment on HOP-62 NSCLC and with HT29 colon was above 100 µM in each case. The TGI in the experiment on IGROV1 ovarian, with LOX IMVI melanoma, in the experiment with MALME-3M melanoma, in the experiment with MCF7 breast, in the experiment with MDA-MB-231 breast and in the experiment on MDA-MB-435 was above 100 µM in each case. Also, the TGI in the experiment with MOLT-4 leukemia, in the experiment with NCI-H23 lung, in the experiment with OVCAR-4 ovarian, with PC-3 prostate, in the experiment on SF-295 CNS and with SK-OV-3 ovarian was above 100 µM in each case. In addition, the TGI with U251 CNS was above 100 µM.
Regarding `CCN(CC)Cc1nc(C2CCC([N+](=O)[O-])O2)no1` (stereo not drawn), the TGI in the experiment with ACHN renal is above 100 µM; in the experiment with COLO 205 colon it was 30.3 µM; in the experiment on HCT-116 colon, 60.4 µM; in the experiment on HCT-15 colon, 38.1 µM; with HOP-62 NSCLC it was 82.7 µM; in the experiment on HT29 colon, 44.5 µM. In addition, the TGI in the experiment on IGROV1 ovarian is above 100 µM; in the experiment on LOX IMVI melanoma, above 100 µM; in the experiment with MALME-3M melanoma, 30.1 µM; with MCF7 breast, 32.2 µM; in the experiment with MDA-MB-231 breast, above 100 µM; with MDA-MB-435, 35.7 µM. The TGI in the experiment on MOLT-4 leukemia is above 100 µM; in the experiment on NCI-H23 lung it was 41.7 µM; in the experiment with OVCAR-4 ovarian it was above 100 µM; with PC-3 prostate, above 100 µM; in the experiment with SF-295 CNS, above 100 µM; with SK-OV-3 ovarian, above 100 µM. The molecule also had a TGI in the experiment on U251 CNS of 62.3 µM.
In the case of `CCOC(=O)c1cccc([N+](=O)[O-])c1N`, the TGI with ACHN renal, with COLO 205 colon, in the experiment on HCT-116 colon, in the experiment with HCT-15 colon, in the experiment with HOP-62 NSCLC and in the experiment with HT29 colon was above 100 µM throughout. For the same molecule, the TGI in the experiment on IGROV1 ovarian, in the experiment on LOX IMVI melanoma, with MALME-3M melanoma, in the experiment on MCF7 breast, in the experiment with MDA-MB-231 breast and with MDA-MB-435 was above 100 µM in each case. Moreover, the TGI in the experiment on MOLT-4 leukemia, with NCI-H23 lung, in the experiment on OVCAR-4 ovarian, in the experiment on PC-3 prostate, in the experiment on SF-295 CNS and in the experiment on SK-OV-3 ovarian was above 100 µM each time. In the experiment on U251 CNS, this molecule gave a TGI above 100 µM.
Take `N=C(N)n1[nH]c2c(c1=O)CCCC2`: the TGI in the experiment with ACHN renal, in the experiment on COLO 205 colon, with HCT-116 colon, with HCT-15 colon, with HOP-62 NSCLC and with HT29 colon was above 100 µM throughout. Further, the TGI with IGROV1 ovarian, with LOX IMVI melanoma, in the experiment on MALME-3M melanoma, in the experiment with MCF7 breast, with MDA-MB-231 breast and in the experiment with MDA-MB-435 was above 100 µM in each case. In addition, the TGI in the experiment with MOLT-4 leukemia, in the experiment with NCI-H23 lung, in the experiment with OVCAR-4 ovarian, with PC-3 prostate, with SF-295 CNS and in the experiment with SK-OV-3 ovarian was above 100 µM each time. In addition, the TGI with U251 CNS was above 100 µM.
For `COc1cc(C(N)=O)cc(NC(=O)/C=C/c2ccccc2)c1OC`, the TGI with ACHN renal, in the experiment on COLO 205 colon, in the experiment with HCT-116 colon, with HCT-15 colon, in the experiment with HOP-62 NSCLC and with HT29 colon was above 100 µM throughout. For the same molecule, the TGI in the experiment with IGROV1 ovarian, in the experiment with LOX IMVI melanoma, in the experiment with MALME-3M melanoma, in the experiment with MCF7 breast, in the experiment on MDA-MB-231 breast and in the experiment with MDA-MB-435 was above 100 µM each time. Besides, the TGI in the experiment with MOLT-4 leukemia, in the experiment with NCI-H23 lung, in the experiment with OVCAR-4 ovarian, in the experiment on PC-3 prostate, in the experiment with SF-295 CNS and in the experiment with SK-OV-3 ovarian was above 100 µM throughout. Moreover, the TGI in the experiment with U251 CNS was above 100 µM.
Consider `CC1OC(OC2C(O)COC(OC3C(C)OC(OC4C(OC(=O)[C@]56CCC(C)(C)C[C@@H]5C5=CCC7[C@@]8(C)C[C@H](O)[C@H](OC9OC(CO)C(O)C(OC%10OC(CO)C(O)C(O)C%10O)C9O)[C@@](C)(CO)[C@@H]8CC[C@@]7(C)[C@]5(C)CC6)OCC(O)C4O)C(O)C3OC3OCC(O)C(O)C3O)C2O)C(O)C(O)C1O` (stereo partly drawn), for which the TGI in the experiment on ACHN renal came to 19.5 µM; in the experiment on COLO 205 colon, 3.82 µM; in the experiment on HCT-116 colon it was 23.7 µM; with HCT-15 colon, 28.2 µM; in the experiment on HOP-62 NSCLC it was 20.3 µM; in the experiment with HT29 colon, 33.9 µM. Further, the TGI in the experiment with IGROV1 ovarian was found to be 24.5 µM; in the experiment with LOX IMVI melanoma, 29.6 µM; with MALME-3M melanoma, 29.9 µM; in the experiment with MCF7 breast, 43.5 µM; in the experiment on MDA-MB-231 breast, 8.87 µM; in the experiment on MDA-MB-435 it was 7.72 µM. In addition, the TGI with MOLT-4 leukemia is 36.1 µM; in the experiment with NCI-H23 lung it was 10.4 µM; with OVCAR-4 ovarian it was 29.8 µM; in the experiment with PC-3 prostate, 16.1 µM; in the experiment with SF-295 CNS it was 9.81 µM; with SK-OV-3 ovarian, 29.4 µM. Also, the TGI in the experiment with U251 CNS is 20.1 µM.
With `Cc1c(CCCl)c(N=[N+]=[N-])n2c(nc3ccccc32)c1C#N`, the TGI with ACHN renal came out at 2.85 µM; in the experiment on COLO 205 colon, 2.66 µM; with HCT-116 colon it was 1.55 µM; in the experiment with HCT-15 colon, 2.72 µM; with HOP-62 NSCLC, 5.01 µM; with HT29 colon, 4.52 µM. In addition, the TGI with IGROV1 ovarian stood at 1.64 µM; in the experiment with LOX IMVI melanoma, 2.37 µM; with MALME-3M melanoma, 2.9 µM; in the experiment with MCF7 breast, 2.14 µM; in the experiment with MDA-MB-231 breast it was 3.16 µM; with MDA-MB-435 it was 2.73 µM. Besides, the TGI with MOLT-4 leukemia was determined as 1.12 µM; with NCI-H23 lung, 2.95 µM; with OVCAR-4 ovarian, 3.54 µM; in the experiment with PC-3 prostate it was 2.72 µM; with SF-295 CNS, 3.54 µM; in the experiment on SK-OV-3 ovarian, 5.07 µM. The same molecule had a TGI with U251 CNS of 6.02 µM.
